# How the values were obtained:
# Experiment in all cases: Weeding effect in post-emergence stage
# Type in all cases: in vivo
# Conditions in all cases: active ingredient 2000 g/ha, 3 weeks after application, fresh weight control rate
# [1] = test system: Abutilon theophrasti
# Procedure, shortened: (§1)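 Read-out is growth control rate based on fresh weight, assessed 3 weeks after treatment in the greenhouse. Plants were sprayed at the 2-3 leaf stage with compound dissolved in acetone, plus Tween 80 and methyl oleate emulsifiable concentrate, at doses from 125 to 2000 g/ha.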
# [2] = test system: Amaranthus retroflexus L.
# Procedure, shortened: as §1
# [3] = test system: Chenopodium album
# Procedure, shortened: as §1
# [4] = test system: Descurainia sophia
# Procedure, shortened: as §1
Structure (SMILES),"Weeding effect, activity level (growth control rate), Abutilon theophrasti [1]","Weeding effect, activity level (growth control rate), Amaranthus retroflexus L. [2]","Weeding effect, activity level (growth control rate), Chenopodium album [3]","Weeding effect, activity level (growth control rate), Descurainia sophia [4]"
Cn1nnnc1NC(=O)c1ccnc(-c2ccc3c(c2)oc2ccccc23)c1Cl [Compound 1-117],5 (Level 5: growth control rate is above 85%),5 (Level 5: growth control rate is above 85%),5 (Level 5: growth control rate is above 85%),5 (Level 5: growth control rate is above 85%)
Cn1nnnc1NC(=O)c1ccnc(-c2ccc3c(c2)sc2ccccc23)c1Cl [Compound 1-118],5 (Level 5: growth control rate is above 85%),5 (Level 5: growth control rate is above 85%),5 (Level 5: growth control rate is above 85%),5 (Level 5: growth control rate is above 85%)
Cn1nnnc1NC(=O)c1ccnc(-c2ccccn2)c1Cl [Compound 1-119],5 (Level 5: growth control rate is above 85%),5 (Level 5: growth control rate is above 85%),5 (Level 5: growth control rate is above 85%),5 (Level 5: growth control rate is above 85%)
Cn1nnnc1NC(=O)c1ccnc(-c2cccc(C#N)n2)c1Cl [Compound 1-120],5 (Level 5: growth control rate is above 85%),5 (Level 5: growth control rate is above 85%),5 (Level 5: growth control rate is above 85%),5 (Level 5: growth control rate is above 85%)
Cn1nnnc1NC(=O)c1ccnc(-c2ccc(C#N)cn2)c1Cl [Compound 1-121],5 (Level 5: growth control rate is above 85%),5 (Level 5: growth control rate is above 85%),5 (Level 5: growth control rate is above 85%),5 (Level 5: growth control rate is above 85%)
Cn1nnnc1NC(=O)c1ccnc(-c2cc(C#N)ccn2)c1Cl [Compound 1-122],5 (Level 5: growth control rate is above 85%),5 (Level 5: growth control rate is above 85%),5 (Level 5: growth control rate is above 85%),5 (Level 5: growth control rate is above 85%)
Cn1nnnc1NC(=O)c1ccnc(-c2ccc(F)cn2)c1Cl [Compound 1-123],5 (Level 5: growth control rate is above 85%),5 (Level 5: growth control rate is above 85%),5 (Level 5: growth control rate is above 85%),5 (Level 5: growth control rate is above 85%)
Cn1nnnc1NC(=O)c1ccnc(-c2cccnc2)c1Cl [Compound 1-124],5 (Level 5: growth control rate is above 85%),5 (Level 5: growth control rate is above 85%),5 (Level 5: growth control rate is above 85%),5 (Level 5: growth control rate is above 85%)
Cc1ccncc1-c1nccc(C(=O)Nc2nnnn2C)c1Cl [Compound 1-125],5 (Level 5: growth control rate is above 85%),5 (Level 5: growth control rate is above 85%),5 (Level 5: growth control rate is above 85%),5 (Level 5: growth control rate is above 85%)
Cc1cncc(-c2nccc(C(=O)Nc3nnnn3C)c2Cl)c1 [Compound 1-126],5 (Level 5: growth control rate is above 85%),5 (Level 5: growth control rate is above 85%),5 (Level 5: growth control rate is above 85%),5 (Level 5: growth control rate is above 85%)
Cn1nnnc1NC(=O)c1ccnc(-c2cccnc2F)c1Cl [Compound 1-127],5 (Level 5: growth control rate is above 85%),5 (Level 5: growth control rate is above 85%),5 (Level 5: growth control rate is above 85%),5 (Level 5: growth control rate is above 85%)
Cn1nnnc1NC(=O)c1ccnc(-c2cncc(F)c2)c1Cl [Compound 1-128],5 (Level 5: growth control rate is above 85%),5 (Level 5: growth control rate is above 85%),5 (Level 5: growth control rate is above 85%),5 (Level 5: growth control rate is above 85%)
Cn1nnnc1NC(=O)c1ccnc(-c2ccc(Cl)nc2)c1Cl [Compound 1-129],5 (Level 5: growth control rate is above 85%),5 (Level 5: growth control rate is above 85%),5 (Level 5: growth control rate is above 85%),5 (Level 5: growth control rate is above 85%)
Cn1nnnc1NC(=O)c1ccnc(-c2cccnc2Cl)c1Cl [Compound 1-130],5 (Level 5: growth control rate is above 85%),5 (Level 5: growth control rate is above 85%),5 (Level 5: growth control rate is above 85%),5 (Level 5: growth control rate is above 85%)
Cn1nnnc1NC(=O)c1ccnc(-c2ccc(Br)nc2)c1Cl [Compound 1-131],5 (Level 5: growth control rate is above 85%),5 (Level 5: growth control rate is above 85%),5 (Level 5: growth control rate is above 85%),5 (Level 5: growth control rate is above 85%)
Cn1nnnc1NC(=O)c1ccnc(-c2ccc(F)nc2)c1Cl [Compound 1-132],5 (Level 5: growth control rate is above 85%),5 (Level 5: growth control rate is above 85%),5 (Level 5: growth control rate is above 85%),5 (Level 5: growth control rate is above 85%)
Cn1nnnc1NC(=O)c1ccnc(-c2cncc(C#N)c2)c1Cl [Compound 1-133],5 (Level 5: growth control rate is above 85%),5 (Level 5: growth control rate is above 85%),5 (Level 5: growth control rate is above 85%),5 (Level 5: growth control rate is above 85%)
Cn1nnnc1NC(=O)c1ccnc(-c2ccc(C#N)nc2)c1Cl [Compound 1-134],5 (Level 5: growth control rate is above 85%),5 (Level 5: growth control rate is above 85%),5 (Level 5: growth control rate is above 85%),5 (Level 5: growth control rate is above 85%)
Cn1nnnc1NC(=O)c1ccnc(-c2ccc(F)nc2F)c1Cl [Compound 1-135],5 (Level 5: growth control rate is above 85%),5 (Level 5: growth control rate is above 85%),5 (Level 5: growth control rate is above 85%),5 (Level 5: growth control rate is above 85%)
Cc1cc(F)ncc1-c1nccc(C(=O)Nc2nnnn2C)c1Cl [Compound 1-136],5 (Level 5: growth control rate is above 85%),5 (Level 5: growth control rate is above 85%),5 (Level 5: growth control rate is above 85%),5 (Level 5: growth control rate is above 85%)
Cc1nc(F)ccc1-c1nccc(C(=O)Nc2nnnn2C)c1Cl [Compound 1-137],5 (Level 5: growth control rate is above 85%),5 (Level 5: growth control rate is above 85%),5 (Level 5: growth control rate is above 85%),5 (Level 5: growth control rate is above 85%)
Cc1cc(Cl)ncc1-c1nccc(C(=O)Nc2nnnn2C)c1Cl [Compound 1-138],5 (Level 5: growth control rate is above 85%),5 (Level 5: growth control rate is above 85%),5 (Level 5: growth control rate is above 85%),5 (Level 5: growth control rate is above 85%)

# — patent US12497365B2, “4-pyridinyl formamide compound or derivative thereof, preparation method therefor, herbicidal composition and use thereof” (Qingdao Kingagroot Chemical Compound Co., Ltd., priority 2019, dated 2025)
